Key:
Format in all cases: in vivo
[1] = system: rice; assay: Test Example 4: effect on crop by soil treatment (symbol b); settings: for b: directly sowed rice plant, effect grade on crop: 320 g/ha; for b: directly sowed rice plant, effect on crop grade: application herbicide amount 320 g/ha
Outline: (§1)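 Plants are raised in a greenhouse (25° C. to 30° C.) from spot-sown seed, which sits under about 1.5 cm of sterilized diluvial soil in a box shared with weed species.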

[2] = system: Scirpus juncoides; assay: Test Example 1: herbicidal activity, application before weed generation in submerged conditions (symbol B); settings: application herbicide amount 320 g/ha
Outline: (§2)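 Weed control was rated three weeks after treatment on a 0–5 scale, from 5% or lower up to 90% or more. Pre-emergence water-surface application of diluted emulsion at a predetermined rate was made on the day of sowing, in flooded (4 cm water) pots containing rice seedlings, kept at 25–30 °C under glass.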

[3] = system: Lolium multiflorum Lam.; assay: Test Example 5: herbicidal effect by foliage application, plastic box (symbol K); settings: 320 g/ha, 3 weeks after application
Outline: (§3)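 Emulsion formulation, diluted with water to the intended rate, was applied uniformly to leaves by small sprayer. Recipients were 14-day greenhouse-grown seedlings (25° C. to 30° C.). Assessment followed at 3 weeks.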

[4] = system: Setaria viridis; assay: Test Example 5: herbicidal effect by foliage application, plastic box (symbol G); settings: 320 g/ha, 3 weeks after application
Outline: as §3

[5] = system: Alopecurus myosuroides; assay: Test Example 4: herbicidal effect by soil treatment (symbol J)
Outline: (§4)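 Seeds were sown in sterilized diluvial soil, covered with about 1.5 cm of soil, and the soil surface was sprayed with a water-diluted emulsion of the compound at a predetermined rate. Plants grew in a greenhouse at 25° C. to 30° C.; effects were scored visually 3 weeks after application.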

[6] = system: transplanted rice plant; assay: Test Example 1: effect on crop, application before weed generation in submerged conditions (symbol a); settings: application herbicide amount 320 g/ha
Outline: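 Rice at 2.5 leaf stage transplanted into submerged soil (4 cm depth) sown with three weed species; herbicide applied before weed emergence.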

[7] = system: wheat; assay: Test Example 4: effect on crop by soil treatment (symbol e); settings: for e: wheat, effect grade on crop: 320 g/ha; for e: wheat, effect on crop grade: application herbicide amount 320 g/ha
Outline: as §1

[8] = system: Cyperus difformis; assay: Test Example 3: herbicidal effect by foliage application, Wagner pot (symbol E); settings: application herbicide amount 320 g/ha
Outline: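 The compound, formulated as an emulsion and diluted with water to a predetermined rate, is applied uniformly to leaves of two-week-old seedlings growing in submerged alluvial soil at 25–30 °C. Rice is included. Each plant is assessed 3 weeks later using defined criteria.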

[9] = system: Galium spurium; assay: Test Example 5: herbicidal effect by foliage application, plastic box (symbol Q); settings: 320 g/ha, 3 weeks after application
Outline: as §3

[10] = system: Echinochloa oryzacola Vasing.; assay: Test Example 1: herbicidal activity, application before weed generation in submerged conditions (symbol A); settings: application herbicide amount 320 g/ha
Outline: as §2

[11] = system: soybean; assay: Test Example 4: effect on crop by soil treatment (symbol d); settings: for d: soybean, effect grade on crop: 320 g/ha; for d: soybean, effect on crop grade: application herbicide amount 320 g/ha
Outline: as §1

[12] = system: Alopecurus myosuroides; assay: Test Example 5: herbicidal effect by foliage application, plastic box (symbol J); settings: 320 g/ha, 3 weeks after application
Outline: as §3

[13] = system: corn; assay: Test Example 4: effect on crop by soil treatment (symbol c); settings: for c: corn, effect grade on crop: 320 g/ha; for c: corn, effect on crop grade: application herbicide amount 320 g/ha
Outline: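 Crop seed is sown in spots together with several weed species in a box of sterilized diluvial soil. It is covered by about 1.5 cm of soil and kept in a greenhouse held between 25° C. and 30° C.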

[14] = system: Stellaria media; assay: Test Example 4: herbicidal effect by soil treatment (symbol P)
Outline: as §4

[15] = system: Galium spurium; assay: Test Example 4: herbicidal effect by soil treatment (symbol Q)
Outline: as §4

[16] = application herbicide amount 320 g/ha

CON=C(C)CC1CC(OC(=O)c2ccc(S(C)(=O)=O)c(C(=O)OC)c2Cl)=C(c2c(C)cc(C)cc2C)C1=O (stereo not drawn) [1-162]
b: directly sowed rice plant, effect grade on crop [1]: 5 (Herbicidal ratio of 90% or more (almost completely withered)) | Herbicidal effect grade, B: Scirpus juncoides [2]: 4 (Herbicidal ratio of 70% or higher and lower than 90%) | K: Lolium multiflorum Lam., herbicidal effect grade [3]: 5 (Herbicidal ratio of 90% or more (almost completely withered)) | G: Setaria viridis, herbicidal effect grade [4]: 5 (Herbicidal ratio of 90% or more (almost completely withered)) | J: Alopecurus myosuroides, herbicidal effect grade ([5]; 320 g/ha): 5 (Herbicidal ratio of 90% or more (almost completely withered)) | Effect grade on crop, a: transplanted rice plant [6]: 5 (Herbicidal ratio of 90% or more (almost completely withered)) | e: wheat, effect grade on crop [7]: 4 (Herbicidal ratio of 70% or higher and lower than 90%) | herbicidal effect on E, grade 0-5 [8]: 5 (Herbicidal ratio of 90% or more (almost completely withered)) | Q: Galium spurium, herbicidal effect grade [9]: 4 (Herbicidal ratio of 70% or higher and lower than 90%) | Herbicidal effect grade, A: Echinochloa oryzacola Vasing. [10]: 5 (Herbicidal ratio of 90% or more (almost completely withered)) | d: soybean, effect grade on crop [11]: 0 (Herbicidal ratio of 5% or lower (almost no effect)) | J: Alopecurus myosuroides, herbicidal effect grade [12]: 5 (Herbicidal ratio of 90% or more (almost completely withered)) | c: corn, effect grade on crop [13]: 2 (Herbicidal ratio of 20% or higher and lower than 40%) | P: Stellaria media, herbicidal effect grade ([14]; 320 g/ha): 0 (Herbicidal ratio of 5% or lower (almost no effect)) | Q: Galium spurium, herbicidal effect grade ([15]; 320 g/ha): 0 (Herbicidal ratio of 5% or lower (almost no effect))

CON=C(C)CC1CC(OC(=O)C(C)Oc2ccc(Oc3ccc(Cl)cc3Cl)cc2)=C(c2c(C)cc(C)cc2C)C1=O (stereo not drawn) [1-163]
b: directly sowed rice plant, effect grade on crop [1]: 5 (Herbicidal ratio of 90% or more (almost completely withered)) | Herbicidal effect grade, B: Scirpus juncoides [2]: 4 (Herbicidal ratio of 70% or higher and lower than 90%) | K: Lolium multiflorum Lam., herbicidal effect grade [3]: 5 (Herbicidal ratio of 90% or more (almost completely withered)) | G: Setaria viridis, herbicidal effect grade [4]: 5 (Herbicidal ratio of 90% or more (almost completely withered)) | J: Alopecurus myosuroides, herbicidal effect grade ([5]; 320 g/ha): 5 (Herbicidal ratio of 90% or more (almost completely withered)) | Effect grade on crop, a: transplanted rice plant [6]: 5 (Herbicidal ratio of 90% or more (almost completely withered)) | e: wheat, effect grade on crop [7]: 0 (Herbicidal ratio of 5% or lower (almost no effect)) | herbicidal effect on E, grade 0-5 [8]: 5 (Herbicidal ratio of 90% or more (almost completely withered)) | Q: Galium spurium, herbicidal effect grade [9]: 3 (Herbicidal ratio of 40% or higher and lower than 70%) | Herbicidal effect grade, A: Echinochloa oryzacola Vasing. [10]: 5 (Herbicidal ratio of 90% or more (almost completely withered)) | d: soybean, effect grade on crop [11]: 0 (Herbicidal ratio of 5% or lower (almost no effect)) | J: Alopecurus myosuroides, herbicidal effect grade [12]: 5 (Herbicidal ratio of 90% or more (almost completely withered)) | c: corn, effect grade on crop [13]: 1 (Herbicidal ratio of 5% or higher and lower than 20%) | P: Stellaria media, herbicidal effect grade ([14]; 320 g/ha): 0 (Herbicidal ratio of 5% or lower (almost no effect)) | Q: Galium spurium, herbicidal effect grade ([15]; 320 g/ha): 0 (Herbicidal ratio of 5% or lower (almost no effect))

CC(=O)C(C(C)=O)C1CC(O)=C(c2c(C)cc(C)cc2C)C1=O (stereo not drawn) [2-002]
b: directly sowed rice plant, effect grade on crop [1]: 1 (Herbicidal ratio of 5% or higher and lower than 20%) | Herbicidal effect grade, B: Scirpus juncoides [2]: 0 (Herbicidal ratio of 5% or lower (almost no effect)) | K: Lolium multiflorum Lam., herbicidal effect grade [3]: 5 (Herbicidal ratio of 90% or more (almost completely withered)) | G: Setaria viridis, herbicidal effect grade [4]: 4 (Herbicidal ratio of 70% or higher and lower than 90%) | J: Alopecurus myosuroides, herbicidal effect grade ([5]; 320 g/ha): 0 (Herbicidal ratio of 5% or lower (almost no effect)) | Effect grade on crop, a: transplanted rice plant [6]: 0 (Herbicidal ratio of 5% or lower (almost no effect)) | e: wheat, effect grade on crop [7]: 0 (Herbicidal ratio of 5% or lower (almost no effect)) | herbicidal effect on E, grade 0-5 [8]: 0 (Herbicidal ratio of 5% or lower (almost no effect)) | Q: Galium spurium, herbicidal effect grade [9]: 2 (Herbicidal ratio of 20% or higher and lower than 40%) | Herbicidal effect grade, A: Echinochloa oryzacola Vasing. [10]: 0 (Herbicidal ratio of 5% or lower (almost no effect)) | d: soybean, effect grade on crop [11]: 0 (Herbicidal ratio of 5% or lower (almost no effect)) | J: Alopecurus myosuroides, herbicidal effect grade [12]: 4 (Herbicidal ratio of 70% or higher and lower than 90%) | c: corn, effect grade on crop [13]: 0 (Herbicidal ratio of 5% or lower (almost no effect)) | P: Stellaria media, herbicidal effect grade ([14]; 320 g/ha): 0 (Herbicidal ratio of 5% or lower (almost no effect)) | Q: Galium spurium, herbicidal effect grade ([15]; 320 g/ha): 0 (Herbicidal ratio of 5% or lower (almost no effect))

CCC(=O)CC1CC(O)=C(c2c(C)cc(C)cc2C)C1=O (stereo not drawn) [2-006]
b: directly sowed rice plant, effect on crop grade [1]: 5 (Herbicidal ratio of 90% or more (almost completely withered)) | Herbicidal effect grade, B: Scirpus juncoides [2]: 2 (Herbicidal ratio of 20% or higher and lower than 40%) | K: Lolium multiflorum Lam., herbicidal effect grade [3]: 5 (Herbicidal ratio of 90% or more (almost completely withered)) | G: Setaria viridis, herbicidal effect grade [4]: 3 (Herbicidal ratio of 40% or higher and lower than 70%) | J: Alopecurus myosuroides, herbicidal effect grade [5, 16]: 5 (Herbicidal ratio of 90% or more (almost completely withered)) | Effect grade on crop, a: transplanted rice plant [6]: 3 (Herbicidal ratio of 40% or higher and lower than 70%) | e: wheat, effect on crop grade [7]: 0 (Herbicidal ratio of 5% or lower (almost no effect)) | herbicidal effect on E, grade 0-5 [8]: 5 (Herbicidal ratio of 90% or more (almost completely withered)) | Q: Galium spurium, herbicidal effect grade [9]: 0 (Herbicidal ratio of 5% or lower (almost no effect)) | Herbicidal effect grade, A: Echinochloa oryzacola Vasing. [10]: 5 (Herbicidal ratio of 90% or more (almost completely withered)) | d: soybean, effect on crop grade [11]: 0 (Herbicidal ratio of 5% or lower (almost no effect)) | J: Alopecurus myosuroides, herbicidal effect grade [12]: 4 (Herbicidal ratio of 70% or higher and lower than 90%) | c: corn, effect on crop grade [13]: 2 (Herbicidal ratio of 20% or higher and lower than 40%) | P: Stellaria media, herbicidal effect grade [14, 16]: 0 (Herbicidal ratio of 5% or lower (almost no effect)) | Q: Galium spurium, herbicidal effect grade [15, 16]: 0 (Herbicidal ratio of 5% or lower (almost no effect))

COCC(=O)CC1CC(O)=C(c2c(C)cc(C)cc2C)C1=O (stereo not drawn) [2-007]
b: directly sowed rice plant, effect on crop grade [1]: 5 (Herbicidal ratio of 90% or more (almost completely withered)) | Herbicidal effect grade, B: Scirpus juncoides [2]: 2 (Herbicidal ratio of 20% or higher and lower than 40%) | K: Lolium multiflorum Lam., herbicidal effect grade [3]: 4 (Herbicidal ratio of 70% or higher and lower than 90%) | G: Setaria viridis, herbicidal effect grade [4]: 0 (Herbicidal ratio of 5% or lower (almost no effect)) | J: Alopecurus myosuroides, herbicidal effect grade [5, 16]: 3 (Herbicidal ratio of 40% or higher and lower than 70%) | Effect grade on crop, a: transplanted rice plant [6]: 4 (Herbicidal ratio of 70% or higher and lower than 90%) | e: wheat, effect on crop grade [7]: 0 (Herbicidal ratio of 5% or lower (almost no effect)) | herbicidal effect on E, grade 0-5 [8]: 5 (Herbicidal ratio of 90% or more (almost completely withered)) | Q: Galium spurium, herbicidal effect grade [9]: 0 (Herbicidal ratio of 5% or lower (almost no effect)) | Herbicidal effect grade, A: Echinochloa oryzacola Vasing. [10]: 3 (Herbicidal ratio of 40% or higher and lower than 70%) | d: soybean, effect on crop grade [11]: 0 (Herbicidal ratio of 5% or lower (almost no effect)) | J: Alopecurus myosuroides, herbicidal effect grade [12]: 4 (Herbicidal ratio of 70% or higher and lower than 90%) | c: corn, effect on crop grade [13]: 0 (Herbicidal ratio of 5% or lower (almost no effect)) | P: Stellaria media, herbicidal effect grade [14, 16]: 0 (Herbicidal ratio of 5% or lower (almost no effect)) | Q: Galium spurium, herbicidal effect grade [15, 16]: 0 (Herbicidal ratio of 5% or lower (almost no effect))
